Test results as given in patent US5451397A, “Bile acid sequestrant” (priority 1992, dated 1995).

Tested on: Chinese hamster ovary (CHO) cell cultures
Type: cell-based
Procedure: A suspension of particles of the sequestrant in deionized water was prepared. The suspension was serially diluted into serumless culture medium. The most concentrated suspension tested was 1000 micrograms sequestrant per milliliter suspension (μg/ml). Exponentially growing Chinese hamster ovary (CHO) cell cultures were treated with the sequestrant dilutions for three hours. The cultures were gently rocked on a rocker platform during treatment in an attempt to maintain a uniform suspension over the cells for the entire treatment period. Negative controls i.e., CHO cell cultures treated with serumless culture medium, and solvent controls, i.e., CHO cell cultures treated with 1% deionized water in serumless culture medium, were included. Treatment was terminated by washing the cultures twice with Dulbecco's phosphate buffered saline and cells were allowed to recover in McCoy's 5A medium containing 10% fetal bovine serum for 0, 5 or 21 hours, i.e., 3, 8 or 24 hours from the beginning of treatment. […] The harvested cells were counted by Coulter counter to determine relative reductions in cell numbers. At selected doses, Trypan blue exclusion counts were conducted using a hemacytometer to determine cell viability to control for the possibility that some dead cells may have been counted with the Coulter counter. […]

Substance: poly(dimethylaminopropylmethacrylamide) [Comparative Example C1]
- ED50 (dosage effective to kill 50% of the cells): 10.0 µg/mL
